# Results reported in patent publication US20230416268A1, “PYRIMIDINONE-CONTAINING 17-BETA-HYDROXYSTEROID DEHYDROGENASE TYPE 13 INHIBITORS” (ENANTA PHARMACEUTICALS, INC., priority 2022, published 2023).
# pIC50: −log10 of the molar value.
# Molecular target: Recombinant human 17β-HSD13 (Homo sapiens (Human), UniProt Q7Z5P4)
# Test: 17β-HSD13 rapid-fire mass spectrometry assay (RF/MS assay)
# Type: biochemical
# Details: HSD17B13 80 nM, LTB4 10 μM, NAD+ 0.5 mM, RT 3 h, RF/MS readout
# Description: 17β-HSD13 rapid-fire mass spectrometry assay (RF/MS assay). Recombinant human 17β-HSD13 was expressed and purified from sf9 cells at Charles River Labs (Saffron Walden, UK). […] The assays were quenched by adding 20 μL of 0.15% aqueous formic acid and the plates were frozen at −80° C. RF/MS analysis was performed at PureHoney Technologies (Billerica, MA) on a RapidFire RF300 system (Agilent Technologies, Inc.) coupled to an API 4000 triple quadrupole mass spectrometer (Sciex) equipped with Agilent RapidFire cartridge type A (C4). The mobile phase was 0.09% formic acid and 0.01% trifluoracetic acid in water (Buffer A) and 0.09% formic acid and 0.01% trifluoracetic acid in 80% aqueous acetonitrile (Buffer B). The RapidFire method conditions were the following: 250 ms aspirate, 3000 ms load/desalt, 4000 ms elute, and 500 ms re-equilibrate. RF-MS/MS was performed in negative polarity (−4500 V), the source temperature was 650° C., and gas 1 and gas 2 settings for nitrogen were set to 50. The curtain gas and collision gas were also nitrogen and were set to 20 and 12, respectively.
# Data Analysis. 17β-HSD13 enzyme activity was measured as percent conversion of extracted ion counts and normalized to high and low controls to determine percent residual activity at various concentrations of test compounds. Data were fitted to normalized activity (variable slope) versus concentration fit in GraphPad Prism 7 to determine IC50. All experiments were run in duplicates.
# Sequence of Recombinant human 17β-HSD13 (Q7Z5P4 20-300): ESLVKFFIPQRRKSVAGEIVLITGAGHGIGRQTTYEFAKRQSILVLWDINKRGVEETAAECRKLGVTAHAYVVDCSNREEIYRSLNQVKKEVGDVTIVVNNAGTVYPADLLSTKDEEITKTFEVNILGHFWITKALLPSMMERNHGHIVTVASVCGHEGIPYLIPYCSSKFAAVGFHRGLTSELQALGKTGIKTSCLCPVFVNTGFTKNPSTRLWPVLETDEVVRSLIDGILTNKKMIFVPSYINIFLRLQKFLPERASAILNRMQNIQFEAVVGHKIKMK
row,Compound,pIC50
1,"COc1ccc(-c2nc3sc4c(OC(C)=O)cccc4c3c(=O)n2Cc2cnco2)c(C2CC2)c1 [Example 1, 2-(2-cyclopropyl-4-methoxyphenyl)-3-(oxazol-5-ylmethyl)-4-oxo-3,4-dihydrobenzo[4,5]thieno[2,3-d]pyrimidin-8-yl acetate]",6.00 to 7.00
2,"CCC(=O)Oc1cccc2c1sc1nc(-c3ccc(OC)cc3C3CC3)n(Cc3cnco3)c(=O)c12 [Example 2, 2-(2-cyclopropyl-4-methoxyphenyl)-3-(oxazol-5-ylmethyl)-4-oxo-3,4-dihydrobenzo[4,5]thieno[2,3-d]pyrimidin-8-yl propionate]",> 7.00
3,"COc1ccc(-c2nc3sc4c(OC(=O)c5ccccc5)cccc4c3c(=O)n2Cc2cnco2)c(C2CC2)c1 [Example 3, 2-(2-cyclopropyl-4-methoxyphenyl)-3-(oxazol-5-ylmethyl)-4-oxo-3,4-dihydrobenzo[4,5]thieno[2,3-d]pyrimidin-8-yl benzoate]",6.00 to 7.00
4,O=c1c2c(nc(-c3ccc4c(c3)OCCO4)n1Cc1ccccc1)sc1c(O)cccc12 [Example 4],6.00 to 7.00
5,CC(C)(C)c1ccc(-c2nc3sc4c(O)cccc4c3c(=O)n2Cc2ccccc2)cc1 [Example 5],< 5.00
6,O=c1c2c(nc(-c3ccc4c(c3)OCO4)n1Cc1ccccc1)sc1c(O)cccc12 [Example 6],< 5.00
7,CC(C)Oc1ccc(-c2nc3sc4c(O)cccc4c3c(=O)n2Cc2ccccc2)cc1 [Example 7],< 5.00
8,COc1ccc(-c2nc3sc4c(O)cccc4c3c(=O)n2Cc2ccccc2)c(Br)c1 [Example 8],6.00 to 7.00
9,COc1ccc(-c2nc3sc4c(O)cccc4c3c(=O)n2Cc2ccccc2)c(C2CC2)c1 [Example 9],> 7.00
10,COc1ccc(-c2nc3sc4c(O)cccc4c3c(=O)n2Cc2ccncc2)c(C2CC2)c1 [Example 10],> 7.00
11,COc1ccc(-c2nc3sc4c(O)cccc4c3c(=O)n2Cc2ccnc(C)c2)c(C2CC2)c1 [Example 12],> 7.00
12,COc1ccc(-c2nc3sc4c(O)cccc4c3c(=O)n2Cc2ccnc(Cl)c2)c(C2CC2)c1 [Example 13],> 7.00
13,COc1ccc(-c2nc3sc4c(O)cccc4c3c(=O)n2Cc2cn[nH]c2)c(C2CC2)c1 [Example 14],> 7.00
14,COc1ccc(-c2nc3sc4c(O)cccc4c3c(=O)n2Cc2cncs2)c(C2CC2)c1 [Example 15],> 7.00
15,COc1ccc(-c2nc3sc4c(O)cccc4c3c(=O)n2Cc2nnn(C)n2)c(C2CC2)c1 [Example 16],> 7.00
16,COc1ccc(-c2nc3sc4c(O)cccc4c3c(=O)n2CCN2CCOCC2)c(C2CC2)c1 [Example 17],> 7.00
17,COc1ccc(-c2nc3sc4c(O)cccc4c3c(=O)n2CCN2CCN(C)CC2)c(C2CC2)c1 [Example 18],> 7.00
18,COc1ccc(-c2nc3sc4c(O)cccc4c3c(=O)n2CCN2CCNCC2)c(C2CC2)c1 [Example 19],> 7.00
19,COc1ccc(-c2nc3sc4c(O)cccc4c3c(=O)n2CCN2CCCCC2)c(C2CC2)c1 [Example 20],> 7.00
20,COc1ccc(-c2nc3sc4c(O)cccc4c3c(=O)n2CCNCc2ccncc2)c(C2CC2)c1 [Example 21],> 7.00
21,COc1ccc(-c2nc3sc4c(O)cccc4c3c(=O)n2CCNCc2ccccn2)c(C2CC2)c1 [Example 22],> 7.00
22,COc1ccc(-c2nc3sc4c(O)cccc4c3c(=O)n2CCNCc2cccnc2)c(C2CC2)c1 [Example 23],> 7.00
23,COc1ccc(-c2nc3sc4c(O)cccc4c3c(=O)n2CCN2CCC(O)CC2)c(C2CC2)c1 [Example 24],> 7.00

row,Compound,pIC50
1,COc1ccc(-c2nc3sc4c(O)cccc4c3c(=O)n2CCN(C)C)c(C2CC2)c1 [Example 25],> 7.00
2,COc1ccc(-c2nc3sc4c(O)cccc4c3c(=O)n2CCN(C)Cc2ccncc2)c(C2CC2)c1 [Example 26],> 7.00
3,COc1ccc(-c2nc3sc4c(O)cccc4c3c(=O)n2CCN(C)Cc2cccnc2)c(C2CC2)c1 [Example 27],> 7.00
4,COc1ccc(-c2nc3sc4c(O)cccc4c3c(=O)n2CCNCc2cnccn2)c(C2CC2)c1 [Example 28],> 7.00
5,COc1ccc(-c2nc3sc4c(O)cccc4c3c(=O)n2CCNCc2cnc(OC)nc2)c(C2CC2)c1 [Example 29],> 7.00
6,COc1ccc(-c2nc3sc4c(O)cccc4c3c(=O)n2CCNCc2cn[nH]c2)c(C2CC2)c1 [Example 30],> 7.00
7,COc1ccc(-c2nc3sc4c(O)cccc4c3c(=O)n2CCNCc2cncs2)c(C2CC2)c1 [Example 32],> 7.00
8,COc1ccc(-c2nc3sc4c(OC(=O)[C@H](C)N)cccc4c3c(=O)n2Cc2cncs2)c(C2CC2)c1 [Example 33],> 7.00
9,COc1ccc(-c2nc3sc4c(O)cccc4c3c(=O)n2CCNCc2nnn[nH]2)c(C2CC2)c1 [Example 34],> 7.00
10,COc1ccc(-c2nc3sc4c(O)cccc4c3c(=O)n2CCOC(=O)N2CCOCC2)c(C2CC2)c1 [Example 35],> 7.00
11,COc1ccc(-c2nc3sc4c(O)cccc4c3c(=O)n2C/C=C/COC(=O)N(C)C)c(C2CC2)c1 [Example 36],> 7.00
12,COc1ccc(-c2nc3sc4c(O)cccc4c3c(=O)n2C/C=C/COc2ccncc2)c(C2CC2)c1 [Example 37],> 7.00
13,COc1ccc(-c2nc3sc4c(O)cccc4c3c(=O)n2CCNC(=O)c2ccncc2)c(C2CC2)c1 [Example 38],6.00 to 7.00
14,COc1ccc(-c2nc3sc4c(O)cccc4c3c(=O)n2CCNCc2nnnn2C)c(C2CC2)c1 [Example 40],> 7.00
15,COc1ccc(-c2nc3sc4c(O)cccc4c3c(=O)n2CCNCc2nnn(C)n2)c(C2CC2)c1 [Example 41],> 7.00
16,COc1ccc(-c2nc3sc4c(O)cccc4c3c(=O)n2C/C=C/C(=O)N(C)C)c(C2CC2)c1 [Example 42],> 7.00
17,COc1ccc(-c2nc3sc4c(O)cccc4c3c(=O)n2C/C=C/CO)c(C2CC2)c1 [Example 43],> 7.00
18,COc1ccc(-c2nc3sc4c(O)cccc4c3c(=O)n2CCN)c(C2CC2)c1 [Example 44],6.00 to 7.00
19,COC(=O)NCCn1c(-c2ccc(OC)cc2C2CC2)nc2sc3c(O)cccc3c2c1=O [Example 45],6.00 to 7.00
20,O=c1c2c(nc(-c3ccc(F)cc3C3CC3)n1Cc1cncs1)sc1c(O)cccc12 [Example 46],> 7.00
21,O=c1c2c(nc(-c3ccccc3C3CC3)n1Cc1cncs1)sc1c(O)cccc12 [Example 47],> 7.00
22,CC(C)Oc1ccccc1-c1nc2sc3c(O)cccc3c2c(=O)n1Cc1cncs1 [Example 49],> 7.00
23,COc1ccc(-c2nc3sc4c(O)cccc4c3c(=O)n2CCNS(=O)(=O)c2ccc(F)cc2)c(C2CC2)c1 [Example 50],6.00 to 7.00

row,Compound,pIC50
1,CCOC(=O)C1CC1Cn1c(-c2ccc(OC)cc2C2CC2)nc2sc3c(O)cccc3c2c1=O (stereo not shown) [Example 51],> 7.00
2,COc1ccc(-c2nc3sc4c(O)cccc4c3c(=O)n2C/C=C/CSc2ccccc2)c(C2CC2)c1 [Example 52],6.00 to 7.00
3,COc1ccc(-c2nc3sc4c(O)cccc4c3c(=O)n2C)c(C2CC2)c1 [Example 53],> 7.00
4,COc1ccc(-c2nc3sc4c(O)cccc4c3c(=O)n2C2CC2)c(C2CC2)c1 [Example 54],6.00 to 7.00
5,COc1ccc(-c2nc3sc4c(O)cccc4c3c(=O)n2C/C=C/CN(C)C)c(C2CC2)c1 [Example 55],< 5.00
6,CCn1c(-c2ccc(OC)cc2C2CC2)nc2sc3c(O)cccc3c2c1=O [Example 56],> 7.00
7,CCCn1c(-c2ccc(OC)cc2C2CC2)nc2sc3c(O)cccc3c2c1=O [Example 57],6.00 to 7.00
8,COc1ccc(-c2nc3sc4c(O)cccc4c3c(=O)n2CC(F)(F)F)c(C2CC2)c1 [Example 58],6.00 to 7.00
9,COc1ccc(-c2nc3sc4c(O)cccc4c3c(=O)n2CC2CC2)c(C2CC2)c1 [Example 59],6.00 to 7.00
10,COc1ccc(-c2nc3sc4c(O)cccc4c3c(=O)n2Cc2cnc(C)s2)c(C2CC2)c1 [Example 60],> 7.00
11,CCc1ncc(Cn2c(-c3ccc(OC)cc3C3CC3)nc3sc4c(O)cccc4c3c2=O)s1 [Example 61],6.00 to 7.00
12,COc1ccc(-c2nc3sc4c(O)cccc4c3c(=O)n2Cc2csc(C)n2)c(C2CC2)c1 [Example 62],> 7.00
13,COc1ccc(-c2nc3sc4c(O)cccc4c3c(=O)n2Cc2ccno2)c(C2CC2)c1 [Example 63],> 7.00
14,COc1ccc(-c2nc3sc4c(O)cccc4c3c(=O)n2Cc2cnco2)c(C2CC2)c1 [Example 64],> 7.00
15,C=CCn1c(-c2ccc(OC)cc2C2CC2)nc2sc3c(O)cccc3c2c1=O [Example 65],> 7.00
16,COc1ccc(-c2nc3sc4c(O)cccc4c3c(=O)n2Cc2cc(C)no2)c(C2CC2)c1 [Example 66],> 7.00
17,COc1ccc(-c2nc3sc4c(O)cccc4c3c(=O)n2Cc2cnc(C)o2)c(C2CC2)c1 [Example 67],> 7.00
18,O=c1c2c(nc(-c3ccc(F)cc3C3CC3)n1Cc1ccno1)sc1c(O)cccc12 [Example 68],> 7.00
19,O=c1c2c(nc(-c3ccc(F)cc3C3CC3)n1Cc1cnco1)sc1c(O)cccc12 [Example 69],> 7.00
20,O=c1c2c(nc(-c3ccc(F)cc3C3CC3)n1Cc1cnoc1)sc1c(O)cccc12 [Example 70],> 7.00
21,COc1ccc(-c2nc3sc4c(OP(=O)(O)O)cccc4c3c(=O)n2Cc2nnn(C)n2)c(C2CC2)c1 [Example 71],5.00 to 6.00
